Reference: patent US20250296961A1, “ANTIMICROBIAL PEPTIDES FOR REMINERALIZATION OF TEETH AND PREVENTION OF DENTAL CARIES” (The University of Hong Kong, priority 2021, published 2025)
Like-named read-outs stand apart in the source and are kept apart here. Non-standard residues stand in square brackets, D forms with d. No end group written: not given here. *: point of attachment. 3,4‑dihydroxyphenethylamine = Oc1ccc(CCN*)cc1O; pS = N[C@@H](COP(=O)(O)O)C(=O)O

Legend:
[1] = Remineralization assay of peptide-coated enamel (Example 1); design: species or system human; settings: 8 μmol/mL coating, remineralization solution 24 h, FE-SEM
Experimental: (§1) 3×3×1.5 mm^3 (number: 197) tooth slices were prepared using a water-cooled diamond saw (IsoMet low-speed saw, Buehler, Lake Bluff, IL, USA). One working surface of complete enamel tissue from each tooth slice was generated using the MicroCT Skyscan 1172 (Bruker MicroCT, Kontich, Belgium). The enamel working side of the tooth slice was polished and other sides marked with acid-proof nail polish. All tooth slices were cleaned and stored in deionized water at 4° C.
The enamel working surface of tooth slices (N=30) was acid-etched in 37% phosphoric acid for 1 min and rinsed with deionized water for 1 min. The slices were immersed in 8 μmol/mL P-113, P-113-DPS, P-113-DA, P-113-SK, Sp-H5 (n=5 for each) solutions (in 10 mM HEPES) or HEPES (control) overnight. All tooth slices were incubated in 7 mL remineralization solution (2.58 mM CaCl2)·2H2O, 1.55 mM KH2PO4, 10 mg/L NaF, 180 mM NaCl, 50 mM Tris-HCl, pH 7.6) for 24 h. The enamel surface and cross-section morphology were analyzed by FE-SEM (Hitachi, S4800). Ca/P concentrations in the solutions before and after immersion were calculated by ICP-OES. The mean values for Ca/P gain were analyzed using ANOVA at the 1‰ significance level.

S. mutans [2] = test: Anti-planktonic bacterial ability, MIC and MBC (Example 1); type: cell-based, Streptococcus mutans (ATCC 35668); settings: for MIC: 24 h
Experimental: (§2) Streptococcus mutans (ATCC 35668, ATCC, Manassas, USA) were cultured in Horse Blood Medium under anaerobic (85% N2, 10% H2, and 5% CO2) conditions at 37° C. Cells were harvested by centrifugation (5000 rpm, 10 min), washed once with 10 mM sodium phosphate-buffered saline (PBS, pH 7.2), and resuspended in brain-heart infusion broth (BHI, Difco Laboratories, Detroit, USA) at a concentration of 10^6 CFU/mL.
Two-fold serial dilutions (in 10 mM HEPES) of P-113, P-113-DPS, P-113-DA, P-113-SK, and Sp-H5 prepared in 25% BHI medium were pipetted into a 96-well cell culture plate at final concentrations from 0.125-128 μmol/mL [100 μL/well]. Each well was seeded with 10 μL bacterial suspension at a final concentration of 10^6 CFU/mL. Sp-H5 with bacterial cells and 25% BHI medium with and without bacterial cells in 10 mM HEPES buffer (pH 7) were used as the positive, negative, and blank control group, respectively. After a 24-h incubation, absorbance was measured at 595 nm using a microplate reader to assess cell growth. […] The minimal bactericidal concentration (MBC) was defined as the lowest concentration of peptide resulting in no colony formation on agar plates after incubation. 10 μL of cell suspension from each well were plated on horse blood agar plates and incubated at 37° C. for 48 h. All determinations were conducted in triplicate experiments.

[3] = Adsorption capacity assay: peptides with HA particles (Micro BCA); type: binding; settings: for Concentration change (95% CI): initial vs final concentration with HA particles; for Final concentration (Mean ± SD): peptide solution mixed with HA particles (20 mg/tube), overnight 37° C.
Experimental: The adsorption of P-113, P-113-DPS, P-113-DA, and P-113-SK to HA particles (Sigma Chemical Co., St Louis, USA) was measured using the Micro BCA method with Sp-H5 as the control group. Solutions of P-113, P-113-DPS, P-113-DA, P-113-SK and Sp-H5 in 10 mM HEPES buffer (pH 7) were diluted to 10 nmol/mL concentrations, and 200 μL was placed into each tube (P-113, N=10; P-113-DPS, N=10; P-113-DA, N=10; P-113-SK, N=10; and Sp-H5, N=10). Peptide solutions were mixed with (n=5) or without (n=5) HA particles (20 mg/tube) in each group. Tubes were placed onto a rotator overnight at 37° C. for complete reaction. Tubes containing the peptide solution and HA were centrifuged (13000 rpm, 1 min) and the supernatant collected. Bovine serum albumin (BSA) standard solutions (working range=5-250 μg/mL) and working reagent were prepared using the Pierce BCA Protein Assay Kit (Rockford, IL, USA). Working reagents (100 μL/well) were added to a 96-well plate, followed by standard and peptide solutions (100 μL/well). The Plate was incubated in the dark for 30 min and the absorbance (562 nm) measured using a plate reader. The concentration (C) of the BSA standard solution was linear with the absorbance (A) at 562 nm. The function of C=a*A+b was determined (a and b as constants). The final concentration (the peptide solution mixed with HA) and the initial concentration (the peptide solution without HA) were computed using the function and the generated absorbance data of the peptide solution mixed with and without HA.

S. mutans biofilms = type: cell-based; settings: for S. mutans killed (biofilm) / Viability counts of S. mutans biofilms: 24 h exposure
Experimental: as §2
S. mutans biofilms were cultured on enamel working surfaces in a 96-well plate. Tooth slices (N=32) were autoclave-sterilized prior to anti-biofilm activity testing. 200 μL S. mutans in BHI (10^6 CFU/mL) was added to each well. After a 24-h incubation at 37° C., each tooth slice was washed once with PBS. […] (in 10 mM HEPES). After incubation, tooth slices were washed once with PBS. One tooth slice at random in each group was stained with the LIVE/DEAD BacLight Bacterial Viability Kit (L7012, Thermo Fisher Scientific, Waltham, USA) and incubated in the dark for 30 min. Fluorescence images were obtained using confocal laser scanning microscopy (CLSM, Fluoview 1000, Olympus, USA). A separate tooth slice was used for the counting of colony-forming units (CFU). Tooth slices were placed in 1 mL BHI solution, and adherent biofilms were removed from the enamel surfaces by sonication for 30 sec. Ten-fold serial dilutions of the suspensions were plated in duplicate on horse blood agar. CFU's were counted after 48-h incubation. Three independent biofilm experiments were performed.

[4] = Demineralization assay of peptide-coated enamel (Example 1); design: species or system human; settings: for Maximum lesion depth: 8 μmol/mL coating, MicroCT
Experimental: as §1
Tooth slices (N=30) were immersed in 8 μmol/mL P-113, P-113-DPS, P-113-DA, P-113-SK, Sp-H5 (n=5 for each) solutions (in 10 mM HEPES) or HEPES (control) overnight. Tooth slices were incubated in 2 mL demineralization solution (2.2 mM CaCl2), 2.2 mM NaH2PO4, 0.05 M acetic acid, pH 4.5) for 7 days at 37° C. Lesions depths were analyzed by MicroCT Skyscan 1172. Mineral calcium (Ca) or phosphorus (P) concentrations before and after immersion were measured using Inductively Coupled Plasma Optical Emission Spectrometer (ICP-OES; Spectro Arcos, Kleve, Germany). Ca/P loss was expressed as mM/cm^2. The mean values of Ca/P loss were analyzed for each group using ANOVA at the 1% c significance level.

S. sanguinis = test: Anti-planktonic bacterial ability, MBC (Example 2); type: cell-based, S. sanguinis (ATCC 10556)
Experimental: (§3) S. mutans (ATCC 35668, ATCC, Manassas, USA), S. gordonii (ATCC 35105, ATCC, Manassas, USA), and S. sanguinis (ATCC 10556, ATCC, Manassas, USA) strains were cultured in brain-heart infusion broth (BHI, Difco Laboratories, Detroit, USA) at 37° C. under anaerobic conditions (85% N2, 10% H2, and 5% CO2). Bacteria were harvested by centrifugation (5000 rpm, 10 min), washed once with sodium phosphate-buffered saline (PBS, 10 mM, pH=7.2), and resuspended in BHI at a concentration of 1×10^6 CFU mL^−1.
(§4) Each well was seeded with 10 μL S. mutans suspension, S. gordonii suspension, and S. sanguinis suspension, respectively. […] The bacterial growth was assessed by measuring the absorbance at 595 nm using a microplate reader after a 24-hour incubation. Subsequently, 10 μL of bacterial suspension from each well were plated on horse blood agar plates and incubated at 37° C. for 48 h. The antibacterial activities of AMPs were evaluated.

S. gordonii = test: Anti-planktonic bacterial ability, MBC (Example 2); type: cell-based, S. gordonii (ATCC 35105)
Experimental: as §3, §4

S. mutans [5] = test: Anti-planktonic bacterial ability, MBC (Example 2); type: cell-based, S. mutans (ATCC 35668)
Experimental: as §3, §4

in vitro = settings: human, human saliva (centrifuged, filtered supernatant)
Experimental: (§5) The collected saliva samples were centrifuged at 12,000 rpm for 20 min^21]. The supernatant was filtered to remove any debris. […] At 0, 0.5, 1, 2, 4, and 6 h, 40 uL solutions were taken from each sample and were analysed by High Performance Liquid Chromatography (HPLC-UV, 1525 Binary HPLC Pump, 2489 UV/Visible Detector, Waters, USA).

MC3T3-E1 cells = test: Cytocompatibility test, CCK-8 (Example 2); design: Cytocompatibility: key to the marks not given beside the values
[6] = for Peptide concentration incubated in human saliva: 37° C.
Experimental: as §5

S. mutans [7] = test: Anti-bacterial adhesion ability on peptide-coated enamel (Example 1); type: cell-based, Streptococcus mutans (ATCC 35668); settings: 32 μmol/mL coated, 5 h incubation
Experimental: as §2
After overnight incubation, they were placed in a 96-well plate, followed by 200 μL S. mutans in BHI (10^6 CFU/mL) and incubation at 37° C. for 5 h. Tooth slices were washed once with PBS, one tooth slice at random from each group was stained, and fluorescence images obtained by CLSM. Separate tooth slices were used for CFU counting. Three independent biofilm experiments were performed.

[8] = demineralization solution 7 days

AKRHHGYKRKFH-D-3,4-dihydroxyphenethylamine (AKRHHGYKRKFHD-{3,4‑dihydroxyphenethylamine}; not fully specified; printed as AKRHHGYKRKFH-D-3,4-dihydroxyphenethylamine) [Peptide P-113-DA]
Thickness of the regenerated crystal layer on the enamel surface [1]: 7 μm | MBC (S. mutans [2]): 32 μM mL^−1 | MIC (S. mutans [2]): 16 μM mL^−1 | Concentration change (95% CI) [3]: −0.17 (−0.55-0.40) | Final concentration (Mean ± SD) [3]: 10.05 ± 0.99 nM mL^−1 | S. mutans killed (biofilm) (S. mutans biofilms; 64 μmol/mL): Approximately 99% | Viability counts of S. mutans biofilms (S. mutans biofilms; 64 μmol/mL): 6.04E+05 CFU/mL | CLSM live/dead state of S. mutans biofilm (S. mutans biofilms; 64 and 128 μmol/mL, 24 h): the majority of S. mutans were dead | Maximum lesion depth [4, 8]: 110 μm | Ca losses vs control group [4, 8]: Significant differences were not detected

AKRHHGYKRKFHDSSDSSDSSDSSDSSDSSDSSDSS [Peptide P-113-8DSS]
MBC, S. sanguinis (S. sanguinis): >64 μM mL^−1 | MBC, S. gordonii (S. gordonii): >64 μM mL^−1 | MBC, S. mutans (S. mutans [5]): >64 μM mL^−1

DSSDSSDSSDSSDSSDSSDSSDSSAKRHHGYKRKFH [Peptide 8DSS-P-113]
MBC, S. sanguinis (S. sanguinis): 64 μM mL^−1 | MBC, S. gordonii (S. gordonii): 64 μM mL^−1 | MBC, S. mutans (S. mutans [5]): >64 μM mL^−1

SpSpAKRHHGYKRKFH ([pS][pS]AKRHHGYKRKFH) [DPS-P-113]
MBC, S. sanguinis (S. sanguinis): >64 μM mL^−1 | MBC, S. gordonii (S. gordonii): >64 μM mL^−1 | MBC, S. mutans (S. mutans [5]): 64 μM mL^−1

TFFRLFNRAKRHHGYKRKFH [Peptide C8-P-113]
remaining at 6 h, 1 mg mL^−1 (in vitro): 11.9% | Concentrations with no significant differences in cell survival rates compared to the control group (MC3T3-E1 cells; MC3T3-E1, 24 h, ½×MBC, MBC and 2×MBC tested): all concentrations | Cytocompatibility (MC3T3-E1 cells; summary grade): ++ | Peptide concentration incubated in human saliva ([6]; 0 h): 1 mg/mL | Peptide concentration incubated in human saliva ([6]; 0.5 h): 0.9531 mg/mL | Peptide concentration incubated in human saliva ([6]; 1 h): 0.8602 mg/mL | Peptide concentration incubated in human saliva ([6]; 2 h): 0.4977 mg/mL | Peptide concentration incubated in human saliva ([6]; 4 h): 0.3578 mg/mL | Peptide concentration incubated in human saliva ([6]; 6 h): 0.119 mg/mL | Stability ([6]; summary grade): −

TFFRLFNRAKRHHGYKRKFHDSSDSSDSSDSSDSSDSSDSSDSS (not fully specified) [C8-P-113-8DSS]
MBC, S. sanguinis (S. sanguinis): >64 μM mL^−1 | MBC, S. gordonii (S. gordonii): >64 μM mL^−1 | MBC, S. mutans (S. mutans [5]): 64 μM mL^−1

phosphoserine-DSHAKRHHGYKRKFHEKHHSHRGY (SDSHAKRHHGYKRKFHEKHHSHRGY; N-terminal phosphoserine; MOD_RES 1 Serine is phosphorylated) [Sp-H5, phosphoserine-histatin 5, used as control group]
Thickness of the regenerated crystal layer on the enamel surface [1]: 6 μm | MBC (S. mutans [2]): 32 μM mL^−1 | MIC (S. mutans [2]): 8 μM mL^−1 | Concentration change (95% CI) [3]: 3.27 (2.92-3.58) | Final concentration (Mean ± SD) [3]: 6.73 ± 0.12 nM mL^−1 | Viable counts of S. mutans on peptide-coated enamel surfaces (S. mutans [7]): 2.04E+05 CFU/mL | S. mutans killed (biofilm) (S. mutans biofilms; 128 μmol/mL): Approximately 99% | Viability counts of S. mutans biofilms (S. mutans biofilms; 128 μmol/mL): 2.0E+04 CFU/mL | Maximum lesion depth [4, 8]: 85 μm | Ca and P loss from coated enamel slices (ICP-OES) ([4]; vs P-113-, P-113-DA-, P-113-SK-coated or non-coated slices, P<0.001): decreased significantly
